Values of other authors in publication PMC3517478 (BMC Neurology, 2012).

What was measured:
[1] = system: transgenic mice (tg271Q-300); settings: 15 mg/kg i.p.; cited from earlier work
[2] = system: startle mutations of the glycine receptor; settings: propofol 1–500 μM; Xenopus laevis oocytes; cited from earlier work

CC(C)c1cccc(C(C)C)c1O [propofol]
effect on startle symptoms (righting time, tremor) [1]: decreased righting time and abatements in tremor without sedative side effects | effect on glycine induced maximal response [2]: increases the glycine induced maximal response
